Results published in article PMC8041433 (Environmental Health Perspectives, 2021).
Where “and” joins values, the source holds several entries; their conditions need not be identical. Equal entries are not always repeated. Structures can show the parent of a compound that is named as a salt. Where two headings read alike, the source gives them in different places.

Tests used:
AChE in SH-SY5Y cells = AChE in SH-SY5Y cells (Homo sapiens, UniProt P22303); test: cell-based
recombinant human AChE [1] = target: T1, recombinant human AChE (Homo sapiens, UniProt P22303)
T1 sequence (P22303 32-614): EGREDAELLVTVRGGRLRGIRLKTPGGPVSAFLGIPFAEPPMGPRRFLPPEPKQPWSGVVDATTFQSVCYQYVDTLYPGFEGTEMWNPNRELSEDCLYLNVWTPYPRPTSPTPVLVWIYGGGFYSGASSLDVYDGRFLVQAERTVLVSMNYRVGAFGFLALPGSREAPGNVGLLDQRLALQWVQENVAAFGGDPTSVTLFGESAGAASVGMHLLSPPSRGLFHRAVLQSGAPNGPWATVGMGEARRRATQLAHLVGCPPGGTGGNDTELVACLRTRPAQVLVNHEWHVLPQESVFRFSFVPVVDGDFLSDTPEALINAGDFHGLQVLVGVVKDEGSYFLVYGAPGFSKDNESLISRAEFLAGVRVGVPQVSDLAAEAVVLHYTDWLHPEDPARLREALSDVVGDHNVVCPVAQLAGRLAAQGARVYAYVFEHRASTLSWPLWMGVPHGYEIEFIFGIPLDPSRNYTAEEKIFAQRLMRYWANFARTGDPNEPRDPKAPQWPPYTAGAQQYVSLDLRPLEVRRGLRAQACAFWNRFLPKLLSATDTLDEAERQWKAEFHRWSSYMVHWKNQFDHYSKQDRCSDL

recombinant human AChE [2] = target: T1, recombinant human AChE; test: biochemical

Chain of AChE in SH-SY5Y cells (P22303 32-614): as above

`COP(=S)(OC)Oc1nc(Cl)c(Cl)cc1Cl` [Chlorpyrifos-methyl] was tested, and the “CC-v2 (curve classes)” value (AChE in SH-SY5Y cells) was 4 and -2.2, the IC50 (AChE in SH-SY5Y cells; IC50 (uM)) was 63.3 µM and the “CC-v2 (curve classes)” value (recombinant human AChE [1]) was 4. For the same compound, the Efficacy (recombinant human AChE [1]) was 0, the “CC-v2 (curve classes)” value (recombinant human AChE [2]) was 4 and the Efficacy (recombinant human AChE [2]) was 0.

With `Cl.O=C(c1ccc(F)cc1)C1CCN(CCn2c(=S)[nH]c3ccccc3c2=O)CC1` [Altanserin hydrochloride] the “CC-v2 (curve classes)” value (AChE in SH-SY5Y cells) was -2.1, the IC50 (AChE in SH-SY5Y cells; read-out: IC50) was 13.8 µM and the “CC-v2 (curve classes)” value (recombinant human AChE [1]) was 4. For the same compound, the Efficacy (recombinant human AChE [1]) was 0, the “CC-v2 (curve classes)” value (recombinant human AChE [2]) was 4 and the Efficacy (recombinant human AChE [2]) was 0.

With `O=C(O)/C=C\C(=O)O.O=C(O)/C=C\C(=O)O.c1cc(CN2CCCCC2)cc(OCCCNc2nc3ccccc3s2)c1` [Zolantidine dimaleate] the “CC-v2 (curve classes)” value (AChE in SH-SY5Y cells) was -2.1, the IC50 (AChE in SH-SY5Y cells; read-out: IC50) was 13.8 µM and 15.5 µM and the “CC-v2 (curve classes)” value (recombinant human AChE [1]) was 4. For the same compound, the Efficacy (recombinant human AChE [1]) was 0, the “CC-v2 (curve classes)” value (recombinant human AChE [2]) was -2.1 and the Efficacy (recombinant human AChE [2]) was -71.468. For the same compound, the IC50 (recombinant human AChE [2]; read-out: IC50) was 27.5 µM.

`CN(CCOc1ccc(NS(C)(=O)=O)cc1)CCc1ccc(NS(C)(=O)=O)cc1` [Dofetilide] gave an IC50 (AChE in SH-SY5Y cells; IC50 (uM)) of 17.4 µM, an Efficacy (recombinant human AChE [1]) of 0 and an Efficacy (recombinant human AChE [2]) of -14.56.

For `CCCCCCCCCCCCCC[n+]1ccccc1` [Tetradecylpyridinium bromide], the “CC-v2 (curve classes)” value (AChE in SH-SY5Y cells) was -1.1 and -2.1, the IC50 (AChE in SH-SY5Y cells; IC50 (uM)) was 31.7 µM and 39.9 µM and the “CC-v2 (curve classes)” value (recombinant human AChE [1]) was 4. For the same compound, the Efficacy (recombinant human AChE [1]) was 0, the “CC-v2 (curve classes)” value (recombinant human AChE [2]) was -2.1 and the Efficacy (recombinant human AChE [2]) was -102.568. The IC50 (recombinant human AChE [2]; IC50 (uM)) was 56.4 µM.

With `Oc1ccc(C(O)CNCCCCCCNCC(O)c2ccc(O)c(O)c2)cc1O` (stereo not drawn) [Hexoprenaline sulfate] the IC50 (AChE in SH-SY5Y cells; IC50 (uM)) was 38.9 µM and 30.9 µM, the “CC-v2 (curve classes)” value (recombinant human AChE [1]) was 4 and the Efficacy (recombinant human AChE [1]) was 0. For the same compound, the “CC-v2 (curve classes)” value (recombinant human AChE [2]) was 4 and the Efficacy (recombinant human AChE [2]) was 0.

In the case of `COP(=O)(OC)Oc1ccc([N+](=O)[O-])cc1` [Methylparaoxon], the “CC-v2 (curve classes)” value (AChE in SH-SY5Y cells) is reported as -1.1, the “CC-v2 (curve classes)” value (recombinant human AChE [1]) is reported as -2.1 and the Efficacy (recombinant human AChE [1]) is reported as -96.544. For the same compound, the “CC-v2 (curve classes)” value (recombinant human AChE [2]) was -1.1 and the Efficacy (recombinant human AChE [2]) was -92.551.

With `O=P(Oc1ccccc1)(Oc1ccccc1)Oc1ccccc1` [Triphenyl phosphate] the “CC-v2 (curve classes)” value (AChE in SH-SY5Y cells) was -1.1 and -2.1, the IC50 (AChE in SH-SY5Y cells; IC50 (uM)) was 20 µM and 19.9 µM and 22.3 µM and 35.6 µM and 31.6 µM and 28.1 µM and 25.2 µM and the “CC-v2 (curve classes)” value (recombinant human AChE [1]) was -2.1. The “CC-v2 (curve classes)” value (recombinant human AChE [2]) was -1.1.

`CCCCCCCCCC[N+](C)(CCCCCCCCCC)CCC[Si](OC)(OC)OC.[Cl-]` [Disiquonium chloride] was tested, and the “CC-v2 (curve classes)” value (AChE in SH-SY5Y cells) was 4, the “CC-v2 (curve classes)” value (recombinant human AChE [1]) was 4 and the Efficacy (recombinant human AChE [1]) was 0. For the same compound, the “CC-v2 (curve classes)” value (recombinant human AChE [2]) was -3, the Efficacy (recombinant human AChE [2]) was -65.382 and the IC50 (recombinant human AChE [2]; read-out: IC50) was 79.6 µM.

For `Nc1ccc(N)c(Cl)c1.O=S(=O)(O)O` [2-Chloro-1,4-diaminobenzene sulfate], the “CC-v2 (curve classes)” value (AChE in SH-SY5Y cells) was -1.1 and -2.1, the IC50 (AChE in SH-SY5Y cells; read-out: IC50) was 22.4 µM and 20 µM and the “CC-v2 (curve classes)” value (recombinant human AChE [1]) was 4. The Efficacy (recombinant human AChE [1]) was -13.066, the “CC-v2 (curve classes)” value (recombinant human AChE [2]) was -1.1 and the Efficacy (recombinant human AChE [2]) was -68.64. The IC50 (recombinant human AChE [2]; read-out: IC50) was 8.94 µM.

`Cc1cc(N)c2cc(NC(=O)Nc3ccc4nc(C)cc(N)c4c3)ccc2n1.Cl.Cl` [Aminoquinuride dihydrochloride] was tested, and the IC50 (AChE in SH-SY5Y cells; read-out: IC50) was 38.9 µM and 30.9 µM, the “CC-v2 (curve classes)” value (recombinant human AChE [1]) was 4 and the Efficacy (recombinant human AChE [1]) was 0. The “CC-v2 (curve classes)” value (recombinant human AChE [2]) was 4 and the Efficacy (recombinant human AChE [2]) was -15.256.

In the case of `Cc1nc2n(c(=O)c1CCN1CCC(c3noc4cc(F)ccc34)CC1)CCCC2` [Risperidone], the “CC-v2 (curve classes)” value (AChE in SH-SY5Y cells) is reported as -1.1 and -2.1, the “CC-v2 (curve classes)” value (recombinant human AChE [1]) is reported as 4 and the Efficacy (recombinant human AChE [1]) is reported as 0. The “CC-v2 (curve classes)” value (recombinant human AChE [2]) was 4 and the Efficacy (recombinant human AChE [2]) was -13.373.

In the case of `CCN(CC)C(=O)[C@@H]1C=C2c3cccc4[nH]cc(c34)C[C@H]2N(C)C1` [Lysergide], the “CC-v2 (curve classes)” value (AChE in SH-SY5Y cells) is reported as -2.1, the IC50 (AChE in SH-SY5Y cells; IC50 (uM)) is reported as 73.8 µM and 93 µM and the “CC-v2 (curve classes)” value (recombinant human AChE [1]) is reported as 4. The Efficacy (recombinant human AChE [1]) was -29.643, the “CC-v2 (curve classes)” value (recombinant human AChE [2]) was -2.2 and the Efficacy (recombinant human AChE [2]) was -56.682. The IC50 (recombinant human AChE [2]; IC50 (uM)) was 104 µM.

With `CCCN[C@H]1CCc2nc(N)sc2C1` [Pramipexole dihydrochloride monohydrate] the “CC-v2 (curve classes)” value (AChE in SH-SY5Y cells) was -2.1, the “CC-v2 (curve classes)” value (recombinant human AChE [1]) was 4 and the Efficacy (recombinant human AChE [1]) was -16.414. For the same compound, the “CC-v2 (curve classes)” value (recombinant human AChE [2]) was 4 and the Efficacy (recombinant human AChE [2]) was -20.242.
